We go through ten compounds from paper PMC7917164 (Bioorganic & medicinal chemistry, 2020).

Data set [1] in a line: Pharmacokinetic evaluation after single iv and po administration. The format is in vivo, male CD-1 mice. Conditions: for Clearance as share of mouse hepatic blood flow / clearance at 24 h: iv; for Clearance as share of mouse hepatic blood flow: male CD-1 mice, hepatic blood flow ~90 mL/min/kg; for clearance at 24 h: male, CD-1, mouse, plasma, 1 mg/kg; for Fraction of oral dose absorbed: mice, accounting for first-pass effects.

For data set [2], the system named is Aβ42 levels (γ-secretase modulation) in SHSY5Y-APP cells. Briefly: Cell-based ELISA assay for measuring extracellular Aβ42 levels. Also noted: species or system human. On the technique in general: In an ELISA, binding on a coated surface is turned into a signal by an enzyme label.

In the case of `CCn1nc(C2(C)CC2)cc1Nc1nc(-c2ccc(-n3cnc(C)c3)c(OC)n2)cs1` [Compound 59, N-(1-ethyl-3-(1-methylcyclopropyl)-1H-pyrazol-5-yl)-4-(6-methoxy-5-(4-methyl-1H-imidazol-1-yl)pyridin-2-yl)thiazol-2-amine], in data set [1], the “Clearance as share of mouse hepatic blood flow” value is “approximately 13%” and the clearance at 24 h was 12.1 mL/min/kg.
With `CCn1nc(C(F)(F)F)cc1Nc1nc(-c2ccc(-n3cnc(C)c3)c(OC)n2)cs1` [Compound 60, N-(1-ethyl-3-(trifluoromethyl)-1H-pyrazol-5-yl)-4-(6-methoxy-5-(4-methyl-1H-imidazol-1-yl)pyridin-2-yl)thiazol-2-amine], the “Parent Aβ42 IC50” value in data set [2] is reported as 98 nM. Moreover, in data set [1], the clearance at 24 h is 26.8 mL/min/kg and the “Fraction of oral dose absorbed” value is on record as “greater than 80%”.
With `COc1nc(-c2csc(Nc3c4c(nn3C)CCC4)n2)ccc1-n1cnc(C)c1` [Compound 63, 4-(6-methoxy-5-(4-methyl-1H-imidazol-1-yl)pyridin-2-yl)-N-(2-methyl-2,4,5,6-tetrahydrocyclopenta[c]pyrazol-3-yl)thiazol-2-amine], in data set [2], the “Parent Aβ42 IC50” value is over 1000 nM. Moreover, in data set [1], the “Clearance as share of mouse hepatic blood flow” value is reported as about 24%, the clearance at 24 h was 21.8 mL/min/kg and the “Fraction of oral dose absorbed” value is listed as “greater than 80%”.
Regarding `COc1nc(-c2csc(Nc3c4c(nn3C(C)(C)C)CCC4)n2)ccc1-n1cnc(C)c1` [Compound 66, N-(2-(tert-butyl)-2,4,5,6-tetrahydrocyclopenta[c]pyrazol-3-yl)-4-(6-methoxy-5-(4-methyl-1H-imidazol-1-yl)pyridin-2-yl)thiazol-2-amine], in data set [2], the “Parent Aβ42 IC50” value was 175 nM.
On to `COc1nc(-c2csc(Nc3c4c(nn3C3CCC3)CCC4)n2)ccc1-n1cnc(C)c1` [Compound 67, N-(2-cyclobutyl-2,4,5,6-tetrahydrocyclopenta[c]pyrazol-3-yl)-4-(6-methoxy-5-(4-methyl-1H-imidazol-1-yl)pyridin-2-yl)thiazol-2-amine], for which the “Parent Aβ42 IC50” value in data set [2] was determined as 92 nM.
On the same count and under the same terms, as for `COc1nc(-c2csc(Nc3c4c(nn3CC(F)(F)F)CCC4)n2)ccc1-n1cnc(C)c1` [Compound 69, 4-(6-methoxy-5-(4-methyl-1H-imidazol-1-yl)pyridin-2-yl)-N-(2-(2,2,2-trifluoroethyl)-2,4,5,6-tetrahydrocyclopenta[c]pyrazol-3-yl)thiazol-2-amine], the figure is 94 nM; as for `COc1nc(-c2csc(Nc3c4c(nn3CCO)CCC4)n2)ccc1-n1cnc(C)c1` [Compound 70, 2-(3-((4-(6-methoxy-5-(4-methyl-1H-imidazol-1-yl)pyridin-2-yl)thiazol-2-yl)amino)-5,6-dihydrocyclopenta[c]pyrazol-2(4H)-yl)ethanol], over 1000 nM.
On to `CCn1nc2c(c1Nc1nc(-c3ccc(-n4cnc(C)c4)c(OC)n3)cs1)CCC2(C)C` [Compound 71, N-(2-ethyl-6,6-dimethyl-2,4,5,6-tetrahydrocyclopenta[c]pyrazol-3-yl)-4-(6-methoxy-5-(4-methyl-1H-imidazol-1-yl)pyridin-2-yl)thiazol-2-amine], for which, in data set [2], the “Parent Aβ42 IC50” value was found to be 62 nM.
On the same count and under the same terms, as for `CCn1nc2c(c1Nc1nc(-c3ccc(-n4cnc(C)c4)c(OC)n3)cs1)CCCCC2` [Compound 73, N-(2-ethyl-2,4,5,6,7,8-hexahydrocyclohepta[c]pyrazol-3-yl)-4-(6-methoxy-5-(4-methyl-1H-imidazol-1-yl)pyridin-2-yl)thiazol-2-amine], the figure is 114 nM; as for `CCn1nccc1Nc1nc(-c2ccc(-n3cnc(C)c3)c(OC)n2)cs1` [Compound 74, N-(1-ethyl-1H-pyrazol-5-yl)-4-(6-methoxy-5-(4-methyl-1H-imidazol-1-yl)pyridin-2-yl)thiazol-2-amine], over 1000 nM.
